Values quoted from earlier work, collected in patent publication US20080161337A1 (priority 2007, published 2008).

Experiments:
[1] = tested on: SIBO; settings: for clinical efficacy for treating SIBO: antibiotics traditionally recommended for treating SIBO
[2] = tested on: IBS patients with abnormal LBT; settings: 82 IBS patients with abnormal LBT; 54-day average follow up
[3] = tested on: SIBO; settings: 34 patients with SIBO and functional gastrointestinal symptoms
[4] = tested on: IBS patients; settings: 86 IBS patients; sustained for ten weeks after a ten day course
[5] = tested on: SIBO; settings: 21 patients with SIBO
[6] = tested on: functional bowel syndrome patients with abnormal LBT; settings: 20 functional bowel syndrome patients with abnormal LBT; 63-day average follow up
[7] = tested on: IBS patients

Cc1ncc([N+](=O)[O-])n1CCO [metronidazole]
clinical efficacy for treating SIBO [1]: 5%

CO[C@H]1/C=C/O[C@@]2(C)Oc3c(C)c(O)c4c(O)c(c5c(nc6cc(C)ccn65)c4c3C2=O)NC(=O)/C(C)=C\C=C\[C@H](C)[C@H](O)[C@@H](C)[C@@H](O)[C@@H](C)[C@H](OC(C)=O)[C@@H]1C [rifaximin]
combined global improvement rated great and moderate [2]: 60% | LBT results and functional gastrointestinal symptoms [3]: improved LBT results and functional gastrointestinal symptoms | solubility in water: practically insoluble in water | global IBS symptoms [4]: statistically significant improvement | improvement in functional gastrointestinal symptoms [5]: greater with rifaximin than chlortetracycline | patients with normalized LBT ([5]; rifaximin seven days at 1200 mg/day): 70% | effectiveness against SIBO ([1]; human, in vivo): highly effective against SIBO | combined global improvement rated great and moderate [6]: 63%

neomycin
results versus placebo ([7]; 111 IBS patients randomized to neomycin or placebo): significantly better results | improvement of symptoms ([7]; when the LBT was normalized): 75% | clinical efficacy for treating SIBO [1]: 25%
